According to ChEMBL document CHEMBL3297661, “1-Substituted-5-[(3,5-dinitrobenzyl)sulfanyl]-1H-tetrazoles and their isosteric analogs: A new class of selective antitubercular agents active against drug-susceptible and multidrug-resistant mycobacteria” (Eur J Med Chem, 2014):
Converted amounts (≈) assume the structure as drawn.

Tests used:
HepG2 = test: Cytotoxicity against human HepG2 cells assessed as reduction in cell viability after 48 hrs by MTT assay; format: cell-based; conditions: HepG2, 48 h
Staphylococcus aureus [1] = test: Antibacterial activity against Staphylococcus aureus ATCC 6538 after 24 hrs by broth microdilution method; format: functional; conditions: ATCC 6538, 24 h
Candida albicans [2] = test: Antifungal activity against Candida albicans ATCC 44859 after 24 hrs by broth microdilution method; format: functional; conditions: ATCC 44859, 24 h
Mycobacterium kansasii [3] = test: Antimycobacterial activity against Mycobacterium kansasii CNCTC My 235/80 after 7 days by micromethod; format: functional; conditions: CNCTC My 235/80, 168 h
Lichtheimia corymbifera [4] = test: Antifungal activity against Absidia corymbifera 272 after 24 hrs by broth microdilution method; format: functional, organism-based; conditions: Lichtheimia corymbifera, 272, 24 h
Mycobacterium avium [5] = test: Antimycobacterial activity against Mycobacterium avium CNCTC My 330/88 after 14 days by micromethod; format: functional; conditions: CNCTC My 330/88, 336 h
Nakaseomyces glabratus [6] = test: Antifungal activity against Candida glabrata 20/I after 48 hrs by broth microdilution method; format: functional
[7] = system: Mycobacterium tuberculosis; test: Antimycobacterial activity against Mycobacterium tuberculosis CNCTC My 331/88 after 14 days by micromethod; format: functional; conditions: CNCTC My 331/88, 336 h
[8] = Cytotoxicity against MDCK2 cells assessed as cell viability at 30 uM after 48 hrs by MTT assay; format: cell-based, Canis lupus familiaris, MDCK-II; conditions: dog, read-out: Activity
Candida tropicalis [9] = test: Antifungal activity against Candida tropicalis 156 after 24 hrs by broth microdilution method; format: functional; conditions: Candida tropicalis, 156, 24 h
Klebsiella pneumoniae [10] = test: Antibacterial activity against Klebsiella pneumoniae D 11750/08 after 24 hrs by broth microdilution method; format: functional; conditions: D 11750/08, 24 h
Trichosporon asahii [11] = test: Antifungal activity against Trichosporon asahii 1188 after 48 hrs by broth microdilution method; format: functional; conditions: Trichosporon asahii, 1188, 48 h
Nakaseomyces glabratus [12] = test: Antifungal activity against Candida glabrata 20/I after 24 hrs by broth microdilution method; format: functional
[13] = system: Trichophyton mentagrophytes; test: Antifungal activity against Trichophyton mentagrophytes 445 after 120 hrs by broth microdilution method; format: functional, organism-based; conditions: Trichophyton mentagrophytes, 445, 120 h
Enterococcus faecalis [14] = test: Antibacterial activity against Enterococcus faecalis J 14365/08 after 24 hrs by broth microdilution method; format: functional; conditions: J 14365/08, 24 h
Staphylococcus aureus [15] = test: Antibacterial activity against methicillin-resistant Staphylococcus aureus H 5996/08 after 24 hrs by broth microdilution method; format: functional; conditions: H 5996/08, 24 h
Trichosporon asahii [16] = test: Antifungal activity against Trichosporon asahii 1188 after 24 hrs by broth microdilution method; format: functional; conditions: Trichosporon asahii, 1188, 24 h
Aspergillus fumigatus [17] = test: Antifungal activity against Aspergillus fumigatus 231 after 48 hrs by broth microdilution method; format: functional, organism-based; conditions: Aspergillus fumigatus, 231, 48 h
Staphylococcus aureus [18] = test: Antibacterial activity against Staphylococcus aureus ATCC 6538 after 48 hrs by broth microdilution method; format: functional; conditions: ATCC 6538, 48 h
Mycobacterium avium [19] = test: Antimycobacterial activity against Mycobacterium avium CNCTC My 330/88 after 21 days by micromethod; format: functional; conditions: CNCTC My 330/88, 504 h
Klebsiella pneumoniae [20] = test: Antibacterial activity against extended spectrum beta-lactamase producing Klebsiella pneumoniae J 14368/08 after 24 hrs by broth microdilution method; format: functional; conditions: J 14368/08, 24 h
Lichtheimia corymbifera [21] = test: Antifungal activity against Absidia corymbifera 272 after 48 hrs by broth microdilution method; format: functional, organism-based; conditions: Lichtheimia corymbifera, 272, 48 h
Escherichia coli [22] = test: Antibacterial activity against Escherichia coli ATCC 8739 after 48 hrs by broth microdilution method; format: functional; conditions: ATCC 8739, ATCC 8739, 48 h
Aspergillus fumigatus [23] = test: Antifungal activity against Aspergillus fumigatus 231 after 24 hrs by broth microdilution method; format: functional, organism-based; conditions: Aspergillus fumigatus, 231, 24 h
Klebsiella pneumoniae [24] = test: Antibacterial activity against Klebsiella pneumoniae D 11750/08 after 48 hrs by broth microdilution method; format: functional; conditions: D 11750/08, 48 h
Mycobacterium kansasii [25] = test: Antimycobacterial activity against Mycobacterium kansasii 6509/96 after 7 days by micromethod; format: functional; conditions: 6509/96, 168 h
Candida tropicalis [26] = test: Antifungal activity against Candida tropicalis 156 after 48 hrs by broth microdilution method; format: functional; conditions: Candida tropicalis, 156, 48 h
[27] = system: Trichophyton mentagrophytes; test: Antifungal activity against Trichophyton mentagrophytes 445 after 72 hrs by broth microdilution method; format: functional, organism-based; conditions: Trichophyton mentagrophytes, 445, 72 h
[28] = system: Mycobacterium tuberculosis; test: Antimycobacterial activity against Mycobacterium tuberculosis CNCTC My 331/88 after 21 days by micromethod; format: functional; conditions: CNCTC My 331/88, 504 h
Pichia kudriavzevii [29] = test: Antifungal activity against Candida krusei E28 after 48 hrs by broth microdilution method; format: functional; conditions: E28, 48 h
Pseudomonas aeruginosa [30] = test: Antibacterial activity against Pseudomonas aeruginosa ATCC 9027 after 24 hrs by broth microdilution method; format: functional; conditions: ATCC 9027, 24 h
Staphylococcus aureus [31] = test: Antibacterial activity against methicillin-resistant Staphylococcus aureus H 5996/08 after 48 hrs by broth microdilution method; format: functional; conditions: H 5996/08, 48 h
Pichia kudriavzevii [32] = test: Antifungal activity against Candida krusei E28 after 24 hrs by broth microdilution method; format: functional; conditions: E28, 24 h
Klebsiella pneumoniae [33] = test: Antibacterial activity against extended spectrum beta-lactamase producing Klebsiella pneumoniae J 14368/08 after 48 hrs by broth microdilution method; format: functional; conditions: J 14368/08, 48 h
[34] = Cytotoxicity against human HuH7 cells assessed as reduction in cell viability after 48 hrs by MTT assay; format: cell-based; conditions: Huh-7, 48 h
Mycobacterium kansasii [35] = test: Antimycobacterial activity against Mycobacterium kansasii CNCTC My 235/80 after 14 days by micromethod; format: functional; conditions: CNCTC My 235/80, 336 h
Enterococcus faecalis [36] = test: Antibacterial activity against Enterococcus faecalis J 14365/08 after 48 hrs by broth microdilution method; format: functional; conditions: J 14365/08, 48 h
[37] = Cytotoxicity against human HeLa cells assessed as cell viability at 30 uM after 48 hrs by MTT assay; format: cell-based; conditions: read-out: Activity
Mycobacterium kansasii [38] = test: Antimycobacterial activity against Mycobacterium kansasii 6509/96 after 14 days by micromethod; format: functional; conditions: 6509/96, 336 h
Mycobacterium kansasii [39] = test: Antimycobacterial activity against Mycobacterium kansasii CNCTC My 235/80 after 21 days by micromethod; format: functional; conditions: CNCTC My 235/80, 504 h
[40] = Cytotoxicity against human HuH7 cells assessed as cell viability at 30 uM after 48 hrs by MTT assay; format: cell-based, Huh-7; conditions: read-out: Activity
[41] = system: Staphylococcus epidermidis; test: Antibacterial activity against Staphylococcus epidermidis H 6966/08 after 48 hrs by broth microdilution method; format: functional; conditions: H 6966/08, 48 h
Mycobacterium kansasii [42] = test: Antimycobacterial activity against Mycobacterium kansasii 6509/96 after 21 days by micromethod; format: functional; conditions: 6509/96, 504 h
Pseudomonas aeruginosa [43] = test: Antibacterial activity against Pseudomonas aeruginosa ATCC 9027 after 48 hrs by broth microdilution method; format: functional; conditions: ATCC 9027, 48 h
[44] = Cytotoxicity against human HepG2 cells assessed as cell viability at 30 uM after 48 hrs by MTT assay; format: cell-based; conditions: read-out: Activity
Escherichia coli [45] = test: Antibacterial activity against Escherichia coli ATCC 8739 after 24 hrs by broth microdilution method; format: functional; conditions: ATCC 8739, ATCC 8739, 24 h
[46] = system: Staphylococcus epidermidis; test: Antibacterial activity against Staphylococcus epidermidis H 6966/08 after 24 hrs by broth microdilution method; format: functional; conditions: H 6966/08, 24 h
HeLa = test: Cytotoxicity against human HeLa cells assessed as reduction in cell viability after 48 hrs by MTT assay; format: cell-based
[47] = Cytotoxicity against MDCK2 cells assessed as reduction in cell viability after 48 hrs by MTT assay; format: cell-based; conditions: Canis lupus familiaris, MDCK-II
Candida albicans [48] = test: Antifungal activity against Candida albicans ATCC 44859 after 48 hrs by broth microdilution method; format: functional; conditions: ATCC 44859, 48 h

For `O=[N+]([O-])c1cc(CSc2nnnn2C2CCCCC2)cc([N+](=O)[O-])c1`, which IC50 (HepG2) is on record?
The IC50 was > 30 µM.

What about the IC95 (Staphylococcus aureus [1]) of the same molecule?
The IC95 was > 500 µM.

And the IC80 (Candida albicans [2])?
The IC80 was > 500 µM.

And the MIC (Mycobacterium kansasii [3])?
Its MIC is 4 µM (≈ 1.46 µg/mL).

And the IC50 (Lichtheimia corymbifera [4])?
The IC50 was > 500 µM.

What about the MIC (Mycobacterium avium [5]) of the same molecule?
The MIC was 16 µM (≈ 5.83 µg/mL).

What about the IC80 (Nakaseomyces glabratus [6]) of the same molecule?
Its IC80 is > 500 µM.

What about the MIC [7] of the same molecule?
The MIC was 1 µM (≈ 0.364 µg/mL).

What about the viability at 48 h, 30 µM [8] of the same molecule?
Its viability at 48 h, 30 µM is 98%.

What about the IC80 (Candida tropicalis [9]) of the same molecule?
The IC80 was > 500 µM.

And the IC95 (Klebsiella pneumoniae [10])?
The IC95 was > 500 µM.

And the IC80 (Trichosporon asahii [11])?
Its IC80 is > 500 µM.

And the IC80 (Nakaseomyces glabratus [12])?
The IC80 was > 500 µM.

And the IC50 [13]?
Its IC50 is > 500 µM.

What about the IC95 (Enterococcus faecalis [14]) of the same molecule?
The IC95 was > 500 µM.

And the IC95 (Staphylococcus aureus [15])?
Its IC95 is > 500 µM.

And the IC80 (Trichosporon asahii [16])?
Its IC80 is > 500 µM.

What about the IC50 (Aspergillus fumigatus [17]) of the same molecule?
Its IC50 is > 500 µM.

And the IC95 (Staphylococcus aureus [18])?
Its IC95 is > 500 µM.

What about the MIC (Mycobacterium avium [19]) of the same molecule?
The MIC was 32 µM (≈ 11.7 µg/mL).

What about the IC95 (Klebsiella pneumoniae [20]) of the same molecule?
The IC95 was > 500 µM.

And the IC50 (Lichtheimia corymbifera [21])?
Its IC50 is > 500 µM.

And the IC95 (Escherichia coli [22])?
Its IC95 is > 500 µM.

And the IC50 (Aspergillus fumigatus [23])?
Its IC50 is > 500 µM.

What about the IC95 (Klebsiella pneumoniae [24]) of the same molecule?
Its IC95 is > 500 µM.

What about the MIC (Mycobacterium kansasii [25]) of the same molecule?
Its MIC is 2 µM (≈ 0.729 µg/mL).

And the IC80 (Candida tropicalis [26])?
The IC80 was > 500 µM.

And the IC50 [27]?
The IC50 was > 500 µM.

And the MIC [28]?
The MIC was 1 µM (≈ 0.364 µg/mL).

And the IC80 (Pichia kudriavzevii [29])?
Its IC80 is > 500 µM.

What about the IC95 (Pseudomonas aeruginosa [30]) of the same molecule?
Its IC95 is > 500 µM.

And the IC95 (Staphylococcus aureus [31])?
Its IC95 is > 500 µM.

What about the IC80 (Pichia kudriavzevii [32]) of the same molecule?
The IC80 was > 500 µM.

What about the IC95 (Klebsiella pneumoniae [33]) of the same molecule?
Its IC95 is > 500 µM.

And the IC50 [34]?
The IC50 was > 30 µM.

What about the MIC (Mycobacterium kansasii [35]) of the same molecule?
Its MIC is 4 µM (≈ 1.46 µg/mL).

And the IC95 (Enterococcus faecalis [36])?
Its IC95 is > 500 µM.

And the viability at 48 h, 30 µM [37]?
Its viability at 48 h, 30 µM is 84%.

What about the MIC (Mycobacterium kansasii [38]) of the same molecule?
The MIC was 2 µM (≈ 0.729 µg/mL).

What about the MIC (Mycobacterium kansasii [39]) of the same molecule?
Its MIC is 4 µM (≈ 1.46 µg/mL).

What about the viability at 48 h, 30 µM [40] of the same molecule?
Its viability at 48 h, 30 µM is 128%.

And the IC95 [41]?
The IC95 was > 500 µM.

What about the MIC (Mycobacterium kansasii [42]) of the same molecule?
The MIC was 4 µM (≈ 1.46 µg/mL).

What about the IC95 (Pseudomonas aeruginosa [43]) of the same molecule?
Its IC95 is > 500 µM.

What about the viability at 48 h, 30 µM [44] of the same molecule?
The viability at 48 h, 30 µM was 88%.

And the IC95 (Escherichia coli [45])?
Its IC95 is > 500 µM.

What about the IC95 [46] of the same molecule?
The IC95 was > 500 µM.

And the IC50 (HeLa)?
The IC50 was > 30 µM.

What about the IC50 [47] of the same molecule?
Its IC50 is > 30 µM.

And the IC80 (Candida albicans [48])?
The IC80 was > 500 µM.
